Test system: TLR4-induced IL-23 and TNF-α
Assay: TLR4 induced TNF-α in THP-1 cells
Assay type: cell-based
Details: human THP-1 cells; result in words
Description: Assay Protocol: TLR4 and TLR2 induced cytokines in THP-1 cells. […]
THP-1 cells (100K in 100 µL/well) were primed with 25 ng/mL IFN-γ for 18 hours at 37°C, 5% CO2. […] IL-23p 19 or TNF-α protein in the supernatant were measured by sandwich ELISA. […] The plates were read with a luminometer, and the chemiluminescence values were entered into Athena (Rigel) for curve fitting, EC50 calculation, and database storage.

Compound: CCO[C@H]1CC[C@H](n2cc(NC(=O)c3csc(-c4cn[nH]c4)n3)c(-c3ncccn3)n2)CC1 [Compound I-1, N-(1-((1r,4r)-4-ethoxycyclohexyl)-3-(pyrimidin-2-yl)-1H-pyrazol-4-yl)-2-(1H-pyrazol-4-yl)thiazole-4-carboxamide]
- TLR4-induced TNF-α production: inhibits
